Source: PubChem BioAssay AID1259407 (Chemical Carcinogenesis Research Information System (CCRIS), 2018)
Activity calls are given as the source filed them. How the calls were made is not given here.

Test system: CCRIS mutagenicity, Ames/micronucleus/aberration tests
Experiment: CCRIS mutagenicity studies

| SMILES | mutagenic call (Test System: AMES SALMONELLA TYPHIMURIUM, Strain/Indicator: TA98, Metabolic Activation: HUMAN, RED BLOOD CELL, CYTOSOL, Method: PREINCUBATION) | mutagenic call (Test System: AMES SALMONELLA TYPHIMURIUM, Strain/Indicator: TA1538, Metabolic Activation: RAT, LIVER, CYTOSOL, 4-ACETYLAMINOFLUORENE, Method: STANDARD PLATE) | mutagenic call (Test System: AMES SALMONELLA TYPHIMURIUM, Strain/Indicator: TA1538, Metabolic Activation: RAT, LIVER, CYTOSOL, AROCLOR 1254, Method: STANDARD PLATE) | mutagenic call (Test System: AMES SALMONELLA TYPHIMURIUM, Strain/Indicator: TA1538, Metabolic Activation: RAT, LIVER, CYTOSOL, Method: STANDARD PLATE) | mutagenic call (Test System: AMES SALMONELLA TYPHIMURIUM, Strain/Indicator: TA1538, Metabolic Activation: RAT, LIVER, MICROSOMES, 4-ACETYLAMINOFLUORENE, Method: STANDARD PLATE) | mutagenic call (Test System: AMES SALMONELLA TYPHIMURIUM, Strain/Indicator: TA1538, Metabolic Activation: RAT, LIVER, MICROSOMES, AROCLOR 1254, Method: STANDARD PLATE) | mutagenic call (Test System: AMES SALMONELLA TYPHIMURIUM, Strain/Indicator: TA1538, Metabolic Activation: RAT, LIVER, MICROSOMES, Method: STANDARD PLATE) | mutagenic call (Test System: AMES SALMONELLA TYPHIMURIUM, Strain/Indicator: TA1538, Metabolic Activation: RAT, LIVER, S-9, PHENOBARBITAL, Method: STANDARD PLATE) | mutagenic call (Test System: E. COLI, Strain/Indicator: WP2 UVRA, Metabolic Activation: HAMSTER, LIVER, S-9, AROCLOR 1254, Method: STANDARD PLATE) | mutagenic call (Test System: E. COLI, Strain/Indicator: WP2 UVRA, Metabolic Activation: HAMSTER, LIVER, S-9, Method: STANDARD PLATE) | mutagenic call (Test System: E. COLI, Strain/Indicator: WP2 UVRA, Metabolic Activation: MOUSE, LIVER, S-9, AROCLOR 1254, Method: STANDARD PLATE) | mutagenic call (Test System: E. COLI, Strain/Indicator: WP2 UVRA, Metabolic Activation: MOUSE, LIVER, S-9, Method: STANDARD PLATE) | mutagenic call (Test System: E. COLI, Strain/Indicator: WP2 UVRA, Metabolic Activation: NONE, Method: STANDARD PLATE) | mutagenic call (Test System: E. COLI, Strain/Indicator: WP2 UVRA, Metabolic Activation: RAT, LIVER, S-9, AROCLOR 1254, Method: STANDARD PLATE) | mutagenic call (Test System: E. COLI, Strain/Indicator: WP2 UVRA, Metabolic Activation: RAT, LIVER, S-9, Method: STANDARD PLATE) | mutagenic call (Test System: MOUSE LYMPHOMA, Strain/Indicator: L5178Y (TK+/TK-), Metabolic Activation: NONE, Method: SUSPENSION/PLATE) | mutagenic call (Test System: UDS, Strain/Indicator: HEPG2/THYMIDINE INCORPORATION, Metabolic Activation: NONE, Method: AUTORADIOGRAPHY) | mutagenic call (Test System: AMES SALMONELLA TYPHIMURIUM, Strain/Indicator: TA98, Metabolic Activation: NONE, Method: STANDARD PLATE) | mutagenic call (Test System: AMES SALMONELLA TYPHIMURIUM, Strain/Indicator: TA100, Metabolic Activation: NONE, Method: STANDARD PLATE) |
| --- | --- | --- | --- | --- | --- | --- | --- | --- | --- | --- | --- | --- | --- | --- | --- | --- | --- | --- | --- |
| CC(=O)Nc1cccc2c1-c1ccccc1C2 | inactive; negative | inactive; negative | active; positive | inactive; negative | active; positive | active; positive | inactive; negative | active; positive | inactive; negative | inactive; negative | inactive; negative | inactive; negative | inactive; negative | inactive; negative | inactive; negative | inactive; negative | inactive; negative |  |  |
| C[C@]12O[C@H]1[C@H]1CCCC[C@@H]1c1ccccc12 |  |  |  |  |  |  |  |  |  |  |  |  |  |  |  |  |  | inactive; negative | inactive; negative |
